Test results from ChEMBL document CHEMBL3351303, “Discovery of Imigliptin, a Novel Selective DPP-4 Inhibitor for the Treatment of Type 2 Diabetes” (ACS Med Chem Lett, 2014).

How the values were obtained:
[1] = Half life in rat at 8 mg/kg, po; assay type: ADME, organism-based; set-up: dose 8 mg/kg, route oral; conditions: in vivo
[2] = Volume of distribution at steady state in rat at 4 mg/kg, iv; assay type: ADME, organism-based; set-up: dose 4 mg/kg, route intravenous; conditions: in vivo, read-out: Vdss
[3] = Half life in rat at 4 mg/kg, iv; assay type: ADME, organism-based; set-up: dose 4 mg/kg, route intravenous; conditions: in vivo
Dipeptidyl peptidase 9 = Dipeptidyl peptidase 9 (Homo sapiens, UniProt Q86TI2); test: Inhibition of human recombinant DPP9 pre-incubated with compound for 15 mins before substrate addition by luminescence assay
Chain of Dipeptidyl peptidase 9 (Q86TI2 whole entry): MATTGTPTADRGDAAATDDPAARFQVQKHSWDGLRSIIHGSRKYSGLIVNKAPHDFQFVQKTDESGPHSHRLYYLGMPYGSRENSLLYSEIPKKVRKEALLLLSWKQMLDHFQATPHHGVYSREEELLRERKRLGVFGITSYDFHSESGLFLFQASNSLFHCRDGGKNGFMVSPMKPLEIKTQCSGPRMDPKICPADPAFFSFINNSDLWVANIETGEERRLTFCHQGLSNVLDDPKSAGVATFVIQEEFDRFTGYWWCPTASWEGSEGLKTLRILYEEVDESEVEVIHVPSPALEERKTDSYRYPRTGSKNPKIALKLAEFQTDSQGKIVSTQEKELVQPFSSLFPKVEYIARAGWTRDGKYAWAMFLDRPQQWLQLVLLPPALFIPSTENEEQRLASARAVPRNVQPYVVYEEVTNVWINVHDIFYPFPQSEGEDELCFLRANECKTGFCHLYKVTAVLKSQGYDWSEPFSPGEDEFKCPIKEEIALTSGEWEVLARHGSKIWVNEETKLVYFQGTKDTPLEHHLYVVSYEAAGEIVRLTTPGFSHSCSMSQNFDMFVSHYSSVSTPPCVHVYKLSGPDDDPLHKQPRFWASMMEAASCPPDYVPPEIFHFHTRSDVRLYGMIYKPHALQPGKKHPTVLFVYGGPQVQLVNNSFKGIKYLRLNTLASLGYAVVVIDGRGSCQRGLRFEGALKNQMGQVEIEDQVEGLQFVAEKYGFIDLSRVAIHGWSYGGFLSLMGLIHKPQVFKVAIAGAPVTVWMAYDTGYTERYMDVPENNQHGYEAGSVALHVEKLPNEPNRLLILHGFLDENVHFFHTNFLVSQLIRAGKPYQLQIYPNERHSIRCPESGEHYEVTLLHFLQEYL

[4] = Oral bioavailability in rat at 8 mg/kg; assay type: ADME, organism-based; conditions: in vivo
[5] = AUClast in rat at 8 mg/kg, po; assay type: ADME, organism-based; set-up: time 0 - last, dose 8 mg/kg, route oral; conditions: plasma
Dipeptidyl peptidase 8 = Dipeptidyl peptidase 8 (Homo sapiens, UniProt Q6V1X1); test: Inhibition of human recombinant DPP8 pre-incubated with compound for 15 mins before substrate addition by luminescence assay
Chain of Dipeptidyl peptidase 8 (Q6V1X1 whole entry): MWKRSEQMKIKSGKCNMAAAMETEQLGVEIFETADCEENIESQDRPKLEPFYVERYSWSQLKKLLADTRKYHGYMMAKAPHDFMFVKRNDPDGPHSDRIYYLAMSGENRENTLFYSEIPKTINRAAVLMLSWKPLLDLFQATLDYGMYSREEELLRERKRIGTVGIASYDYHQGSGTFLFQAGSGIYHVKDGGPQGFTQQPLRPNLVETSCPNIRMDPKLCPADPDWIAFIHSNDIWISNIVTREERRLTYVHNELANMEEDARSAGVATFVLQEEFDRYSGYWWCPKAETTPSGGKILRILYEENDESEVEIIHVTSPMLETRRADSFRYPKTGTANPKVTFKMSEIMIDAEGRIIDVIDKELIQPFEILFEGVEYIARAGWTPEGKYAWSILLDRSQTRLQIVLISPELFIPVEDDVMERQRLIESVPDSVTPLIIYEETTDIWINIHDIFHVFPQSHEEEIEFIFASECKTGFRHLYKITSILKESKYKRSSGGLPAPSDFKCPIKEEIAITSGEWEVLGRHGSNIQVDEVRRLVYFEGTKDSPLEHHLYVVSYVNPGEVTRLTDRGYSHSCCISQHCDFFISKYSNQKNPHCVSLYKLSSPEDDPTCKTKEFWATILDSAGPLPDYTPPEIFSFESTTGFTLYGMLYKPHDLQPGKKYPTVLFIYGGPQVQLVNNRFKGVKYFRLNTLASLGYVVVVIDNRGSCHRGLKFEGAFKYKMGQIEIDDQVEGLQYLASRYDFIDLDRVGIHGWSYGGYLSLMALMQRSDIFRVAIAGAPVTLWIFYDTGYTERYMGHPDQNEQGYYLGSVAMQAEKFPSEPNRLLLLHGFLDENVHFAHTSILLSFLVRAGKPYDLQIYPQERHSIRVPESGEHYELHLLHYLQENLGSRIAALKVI

[6] = Cmax in rat at 8 mg/kg, po; assay type: ADME, organism-based; set-up: dose 8 mg/kg, route oral; conditions: in vivo
[7] = Clearance in rat at 4 mg/kg, iv; assay type: ADME, organism-based; set-up: dose 4 mg/kg, route intravenous; conditions: in vivo

half-life [1]: 1.5 h
Vd [2]: 2.78 L/kg
half-life [3]: 0.8 h
IC50 (Dipeptidyl peptidase 9): > 100 µM
bioavailability [4]: 12%
AUC(0-t) [5]: 249 ng·h/mL
IC50 (Dipeptidyl peptidase 8): > 100 µM
Cmax [6]: 86 ng/mL
clearance [7]: 61.2 mL/min/kg
SMILES: Cn1c(=O)n(Cc2ccccc2C#N)c2c(N3CCC[C@@H](N)C3)ncnc21
